Results published in patent US8691856B2 (Eli Lilly and Company, priority 2005, dated 2014).

Target: cloned human glucagon receptor (Homo sapiens (Human), UniProt P47871)
Experiment: Glucagon Receptor (hGlucR) Binding Assay
Method: The hGlucuR cDNA is subcloned into the expression plasmid phD (Trans-activated expression of fully gamma-carboxylated recombinant human protein C, an antithrombotic factor. Grinnell, B. W., Berg, D. T., Walls, J. and Yan, S. B. Bio/Technology 5: 1189-1192 (1987)). This plasmid DNA is transfected into 293 HEK cells and selected with 200 μg/mL Hygromycin.
Crude plasma membranes are prepared using cells from suspension culture. The cells are lysed on ice in hypotonic buffer containing 25 mM Tris HCL, pH 7.5, 1 mM MgCl2, DNAse1, 20 u/mL, and Roche Complete Inhibitors-without EDTA. The cell suspension is homogenized with a glass dounce homogenizer using a Teflon pestle for 25 strokes. The homogenate is centrifuged at 4 degrees C. at 1800×g for 15 mins. The supernate is collected and the pellet is resuspended in hypotonic buffer and rehomogenized. The mixture is centrifuged at 1800×g for 15 mins. The second supernate is combined with the first supernate. The combined supernates are recentrifuged at 1800×g for 15 mins to clarify. The clarified supernate is transferred to high speed tubes and centrifuged at 25000×g for 30 minutes at 4 degrees C. […]
The binding buffer contains 25 mM Hepes, pH 7.4, 2.5 mM CaCl2, 1 mM MgCl2, 0.1% fatty acid free BSA, (ICN), 0.003% tween-20, and Roche Complete Inhibitors without EDTA. […] Plates are read with a MicroBeta after 14 hours of settling time at room temp. […]

Chain of cloned human glucagon receptor (P47871 26-477): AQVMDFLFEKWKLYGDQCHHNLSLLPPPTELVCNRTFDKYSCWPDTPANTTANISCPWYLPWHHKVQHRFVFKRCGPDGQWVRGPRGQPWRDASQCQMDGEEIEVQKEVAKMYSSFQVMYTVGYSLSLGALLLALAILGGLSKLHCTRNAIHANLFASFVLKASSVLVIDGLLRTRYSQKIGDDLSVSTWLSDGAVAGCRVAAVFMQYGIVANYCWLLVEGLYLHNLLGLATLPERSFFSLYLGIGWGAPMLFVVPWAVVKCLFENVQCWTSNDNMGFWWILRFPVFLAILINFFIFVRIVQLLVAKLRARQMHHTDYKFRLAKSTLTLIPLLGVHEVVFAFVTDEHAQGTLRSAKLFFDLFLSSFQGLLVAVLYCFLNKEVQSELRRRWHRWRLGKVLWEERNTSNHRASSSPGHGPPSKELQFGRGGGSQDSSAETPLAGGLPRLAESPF

## Cc1cc(OC(CCC(C)(C)C)c2ccc(C(=O)Nc3nnn[nH]3)cc2)cc(C)c1-c1ccc(C(F)(F)F)cc1 (stereo not shown)
  Ki: 93.3 nM
